Where “and” joins values, the source holds several entries; their conditions need not be identical. Identical values can stand only once. Bridge positions count the residues as written; N and C are the ends. Square brackets hold non-standard residues; d marks the D form. Peptide text beside a SMILES is read from it. Hyp = O=C(O)[C@@H]1C[C@@H](O)CN1
Assays:
[1] = target: OCT binding sites, elasmobranch electric organ synaptosomes (Diplobatis ommata, UniProt P56698); assay: biochemical; set-up: species or system Ommata dyscopyge (marine electric ray)
[2] = target: OCT binding site, rat brain synaptosomes (Rattus norvegicus, UniProt Q02294); assay: biochemical
[3] = system: voltage-gated calcium channels, dorsal root ganglion (DRG) neurons; conditions: cited from earlier work
[4] = system: hippocampal CA1 region, gerbil global ischemia model; set-up: species or system Meriones unguiculatus (mongolian gerbil); conditions: in vivo
[5] = system: depolarization-dependent ATP release from electric organ synaptosomes; assay type: biochemical, Ommata discopyge; conditions: read-out: IC50 (ATP release inhibition)
[6] = system: hippocampal CA1 region, rat four-vessel occlusion model; set-up: species or system rat (Fisher 344); conditions: in vivo
[7] = system: OCT receptor sites, 293 human kidney cells; assay type: binding
[8] = target: OCT receptor sites, PC-12 rat pheochromocytoma cells (Rattus norvegicus, UniProt Q02294); assay type: binding
[9] = system: Male Swiss-Webster mice; conditions: mouse, in vivo; cited from earlier work

Chain of OCT binding sites, elasmobranch electric organ synaptosomes (P56698 whole entry, looked up): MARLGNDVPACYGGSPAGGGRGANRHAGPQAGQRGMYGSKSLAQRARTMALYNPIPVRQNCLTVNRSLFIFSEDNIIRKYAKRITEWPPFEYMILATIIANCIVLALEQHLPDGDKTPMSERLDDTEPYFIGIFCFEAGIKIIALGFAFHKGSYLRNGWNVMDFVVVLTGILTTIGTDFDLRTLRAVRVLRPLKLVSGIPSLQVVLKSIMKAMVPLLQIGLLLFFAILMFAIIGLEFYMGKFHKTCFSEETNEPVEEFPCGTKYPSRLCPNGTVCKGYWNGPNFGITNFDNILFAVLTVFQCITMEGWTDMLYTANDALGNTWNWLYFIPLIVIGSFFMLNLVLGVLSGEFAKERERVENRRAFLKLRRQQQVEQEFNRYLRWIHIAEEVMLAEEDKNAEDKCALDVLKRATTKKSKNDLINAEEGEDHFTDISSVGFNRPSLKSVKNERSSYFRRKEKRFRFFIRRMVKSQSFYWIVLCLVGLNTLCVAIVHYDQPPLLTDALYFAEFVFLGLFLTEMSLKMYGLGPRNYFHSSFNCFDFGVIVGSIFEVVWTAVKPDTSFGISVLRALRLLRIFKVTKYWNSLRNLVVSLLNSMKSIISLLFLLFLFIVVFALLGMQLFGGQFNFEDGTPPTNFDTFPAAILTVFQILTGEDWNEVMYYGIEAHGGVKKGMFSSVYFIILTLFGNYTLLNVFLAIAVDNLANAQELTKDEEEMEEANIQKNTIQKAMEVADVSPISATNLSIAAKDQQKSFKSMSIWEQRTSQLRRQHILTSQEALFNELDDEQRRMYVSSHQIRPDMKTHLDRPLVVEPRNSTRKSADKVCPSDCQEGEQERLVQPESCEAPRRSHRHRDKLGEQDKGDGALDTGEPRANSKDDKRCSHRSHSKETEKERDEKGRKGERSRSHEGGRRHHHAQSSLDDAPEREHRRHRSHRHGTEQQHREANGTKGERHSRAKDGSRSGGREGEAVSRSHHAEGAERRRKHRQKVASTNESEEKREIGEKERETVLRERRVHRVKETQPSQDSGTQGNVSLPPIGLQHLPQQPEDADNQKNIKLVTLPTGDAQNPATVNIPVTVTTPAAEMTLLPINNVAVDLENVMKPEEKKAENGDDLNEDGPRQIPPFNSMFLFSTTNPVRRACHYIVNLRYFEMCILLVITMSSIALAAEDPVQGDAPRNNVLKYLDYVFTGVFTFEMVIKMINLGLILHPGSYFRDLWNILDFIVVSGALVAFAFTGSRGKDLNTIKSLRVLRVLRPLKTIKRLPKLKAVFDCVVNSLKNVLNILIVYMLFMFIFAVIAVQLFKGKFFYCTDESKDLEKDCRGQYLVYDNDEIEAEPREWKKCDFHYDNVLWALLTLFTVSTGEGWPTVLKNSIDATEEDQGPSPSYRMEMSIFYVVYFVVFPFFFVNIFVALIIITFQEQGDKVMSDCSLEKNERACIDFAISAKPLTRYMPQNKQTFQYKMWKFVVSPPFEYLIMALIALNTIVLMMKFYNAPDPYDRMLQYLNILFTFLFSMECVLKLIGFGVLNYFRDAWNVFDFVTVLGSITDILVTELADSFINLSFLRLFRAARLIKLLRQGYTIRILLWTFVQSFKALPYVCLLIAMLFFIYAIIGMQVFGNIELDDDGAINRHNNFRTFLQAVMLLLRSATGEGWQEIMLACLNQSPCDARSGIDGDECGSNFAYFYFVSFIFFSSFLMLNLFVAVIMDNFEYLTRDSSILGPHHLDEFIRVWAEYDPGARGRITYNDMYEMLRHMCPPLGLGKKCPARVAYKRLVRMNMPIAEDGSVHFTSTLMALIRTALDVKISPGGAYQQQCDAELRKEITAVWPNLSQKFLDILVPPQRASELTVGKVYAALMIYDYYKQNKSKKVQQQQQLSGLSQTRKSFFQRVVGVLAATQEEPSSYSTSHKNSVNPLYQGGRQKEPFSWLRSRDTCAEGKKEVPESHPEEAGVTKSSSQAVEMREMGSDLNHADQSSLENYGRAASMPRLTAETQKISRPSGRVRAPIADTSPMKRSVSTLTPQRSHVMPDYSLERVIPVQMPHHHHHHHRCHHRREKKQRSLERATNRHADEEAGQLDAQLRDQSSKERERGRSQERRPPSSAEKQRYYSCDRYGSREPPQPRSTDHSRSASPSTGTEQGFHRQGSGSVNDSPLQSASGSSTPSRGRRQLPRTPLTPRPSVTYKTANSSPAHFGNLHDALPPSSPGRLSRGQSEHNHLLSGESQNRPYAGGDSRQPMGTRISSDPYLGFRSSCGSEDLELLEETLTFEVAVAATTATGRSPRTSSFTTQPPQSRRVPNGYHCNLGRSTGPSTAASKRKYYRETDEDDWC
Chain of OCT binding site, rat brain synaptosomes (Q02294 whole entry, looked up): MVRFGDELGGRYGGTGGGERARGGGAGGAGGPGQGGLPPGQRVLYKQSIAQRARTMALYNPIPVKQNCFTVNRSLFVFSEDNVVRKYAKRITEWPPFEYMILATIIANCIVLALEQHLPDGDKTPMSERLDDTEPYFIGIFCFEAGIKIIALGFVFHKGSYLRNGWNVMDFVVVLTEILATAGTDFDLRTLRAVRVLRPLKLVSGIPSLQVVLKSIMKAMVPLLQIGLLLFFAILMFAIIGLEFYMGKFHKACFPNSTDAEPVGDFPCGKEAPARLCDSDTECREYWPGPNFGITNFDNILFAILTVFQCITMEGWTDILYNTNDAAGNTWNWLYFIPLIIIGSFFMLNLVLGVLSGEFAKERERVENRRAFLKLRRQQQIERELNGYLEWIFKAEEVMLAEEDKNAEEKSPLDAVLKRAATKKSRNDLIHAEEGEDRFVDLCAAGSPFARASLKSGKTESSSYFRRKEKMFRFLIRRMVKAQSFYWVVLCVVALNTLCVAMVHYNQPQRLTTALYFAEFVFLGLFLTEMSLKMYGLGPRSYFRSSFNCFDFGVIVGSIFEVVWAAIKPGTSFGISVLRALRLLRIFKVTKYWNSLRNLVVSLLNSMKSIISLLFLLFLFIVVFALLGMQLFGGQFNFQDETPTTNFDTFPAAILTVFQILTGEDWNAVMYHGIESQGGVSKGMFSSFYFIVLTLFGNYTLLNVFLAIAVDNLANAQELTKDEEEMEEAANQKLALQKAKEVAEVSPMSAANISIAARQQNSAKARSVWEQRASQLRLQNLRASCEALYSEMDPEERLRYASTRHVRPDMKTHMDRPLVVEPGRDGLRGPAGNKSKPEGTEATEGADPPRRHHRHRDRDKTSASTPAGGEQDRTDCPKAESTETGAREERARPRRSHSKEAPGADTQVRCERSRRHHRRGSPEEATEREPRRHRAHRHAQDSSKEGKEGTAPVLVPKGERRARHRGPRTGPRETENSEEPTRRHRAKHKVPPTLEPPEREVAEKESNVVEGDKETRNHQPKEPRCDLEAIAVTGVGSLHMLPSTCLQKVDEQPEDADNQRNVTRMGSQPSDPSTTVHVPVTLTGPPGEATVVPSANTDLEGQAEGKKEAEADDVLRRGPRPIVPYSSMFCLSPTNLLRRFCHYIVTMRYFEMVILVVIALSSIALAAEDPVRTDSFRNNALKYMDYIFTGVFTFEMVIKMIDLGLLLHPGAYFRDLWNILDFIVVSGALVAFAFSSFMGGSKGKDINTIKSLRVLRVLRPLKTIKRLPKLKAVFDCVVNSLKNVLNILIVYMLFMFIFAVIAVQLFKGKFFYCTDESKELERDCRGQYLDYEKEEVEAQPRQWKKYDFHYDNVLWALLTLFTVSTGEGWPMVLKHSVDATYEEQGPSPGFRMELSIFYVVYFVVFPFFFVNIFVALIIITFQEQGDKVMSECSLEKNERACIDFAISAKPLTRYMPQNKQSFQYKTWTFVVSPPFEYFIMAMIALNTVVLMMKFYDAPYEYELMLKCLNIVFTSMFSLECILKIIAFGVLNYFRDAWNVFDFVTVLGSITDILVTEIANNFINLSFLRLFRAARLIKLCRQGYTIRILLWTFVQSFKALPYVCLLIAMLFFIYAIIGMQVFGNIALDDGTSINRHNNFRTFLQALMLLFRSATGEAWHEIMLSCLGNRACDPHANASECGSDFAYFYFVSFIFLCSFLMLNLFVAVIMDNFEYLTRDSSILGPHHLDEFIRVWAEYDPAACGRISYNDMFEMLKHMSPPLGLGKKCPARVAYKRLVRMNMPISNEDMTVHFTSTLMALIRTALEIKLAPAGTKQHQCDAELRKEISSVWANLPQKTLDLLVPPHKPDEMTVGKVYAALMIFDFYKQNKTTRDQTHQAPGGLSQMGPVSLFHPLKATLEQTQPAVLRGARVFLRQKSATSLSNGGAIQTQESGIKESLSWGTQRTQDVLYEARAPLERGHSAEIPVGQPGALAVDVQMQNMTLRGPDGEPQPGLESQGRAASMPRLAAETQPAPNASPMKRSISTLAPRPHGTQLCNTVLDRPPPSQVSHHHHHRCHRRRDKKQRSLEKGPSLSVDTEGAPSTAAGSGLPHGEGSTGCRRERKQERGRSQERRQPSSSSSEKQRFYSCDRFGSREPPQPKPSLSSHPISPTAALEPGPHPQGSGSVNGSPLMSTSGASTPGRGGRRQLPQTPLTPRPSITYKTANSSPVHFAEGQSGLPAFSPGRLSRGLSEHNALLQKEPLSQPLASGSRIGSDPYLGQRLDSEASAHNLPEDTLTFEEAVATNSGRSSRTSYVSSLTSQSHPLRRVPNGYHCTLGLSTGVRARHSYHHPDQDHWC
Chain of OCT receptor sites, PC-12 rat pheochromocytoma cells (Q02294 whole entry, looked up): as above

C[C@@H]1NC(=O)CNC(=O)[C@H](CCCCN)NC(=O)CNC(=O)[C@H](CCCCN)NC(=O)[C@@H](N)CSSC[C@@H]2NC(=O)[C@@H]3CSSC[C@@H](C(N)=O)NC(=O)[C@H](CCCCN)NC(=O)CNC(=O)[C@H](CCCNC(=N)N)NC(=O)[C@H](CC(N)=O)NC(=O)[C@H](CSSC[C@H](NC(=O)[C@H](CO)NC1=O)C(=O)N[C@@H](Cc1c[nH]cn1)C(=O)N[C@@H](CCCNC(=N)N)C(=O)N[C@@H]([C@@H](C)O)C(=O)N[C@@H](CO)C(=O)N[C@@H](Cc1ccc(O)cc1)C(=O)N[C@@H](CC(=O)O)C(=O)N3)NC(=O)[C@H](CO)NC(=O)CNC(=O)[C@H]([C@@H](C)O)NC2=O [MVIIB] (H-CKGKGASCHRTSYDCCTGSCNRGKC-NH2; disulfide 1-16, 8-20, 15-25)
Ki ([1]; pKi): 0.0219 µM | IC50 [2]: 0.00049 µM

CSCC[C@@H]1NC(=O)CNC(=O)[C@H](CCCNC(=N)N)NC(=O)[C@H](CO)NC(=O)[C@@H]2CSSC[C@@H]3NC(=O)[C@H](CO)NC(=O)[C@H]([C@@H](C)O)NC(=O)[C@H](CSSC[C@H](N)C(=O)N[C@@H](CCCCN)C(=O)N[C@@H](CO)C(=O)N4C[C@H](O)C[C@H]4C(=O)NCC(=O)N[C@@H]([C@@H](C)O)C(=O)N4C[C@H](O)C[C@H]4C(=O)N2)NC(=O)[C@H](CSSC[C@@H](C(=O)N[C@@H](CCCNC(=N)N)C(=O)N[C@@H](CCCNC(=N)N)C(=O)N[C@@H](Cc2ccc(O)cc2)C(N)=O)NC(=O)[C@H](CCCCN)NC(=O)[C@H](CC(N)=O)NC(=O)[C@H](CO)NC(=O)[C@H](Cc2ccc(O)cc2)NC(=O)[C@H](CC(C)C)NC(=O)[C@H](CC(C)C)NC3=O)NC(=O)[C@H](CC(=O)O)NC(=O)[C@H](CCCNC(=N)N)NC1=O [GVIIA] (H-CKS[Hyp]GT[Hyp]CSRGMRDCCTSCLLYSNKCRRY-NH2; disulfide 1-16, 8-19, 15-26)
Ki ([1]; pKi): 0.00309 µM | IC50 [2]: 0.0229 µM

C[C@@H](O)[C@@H]1NC(=O)[C@H](Cc2ccc(O)cc2)NC(=O)[C@@H]2C[C@@H](O)CN2C(=O)[C@H](CC(N)=O)NC(=O)[C@@H]2CSSC[C@@H]3NC(=O)[C@H](CO)NC(=O)[C@H](CO)NC(=O)CNC(=O)[C@@H]4C[C@@H](O)CN4C(=O)[C@H](CO)NC(=O)[C@H](CCCCN)NC(=O)[C@@H](N)CSSC[C@H](NC(=O)[C@H](CSSC[C@@H](C(=O)N[C@@H](Cc4ccc(O)cc4)C(N)=O)NC(=O)[C@H](CCCNC(=N)N)NC(=O)[C@H](CCCCN)NC1=O)NC(=O)[C@H](CC(N)=O)NC(=O)[C@H](Cc1ccc(O)cc1)NC(=O)[C@H](CO)NC(=O)[C@H]([C@@H](C)O)NC(=O)[C@@H]1C[C@@H](O)CN1C(=O)[C@H](CO)NC3=O)C(=O)N[C@@H](CCCNC(=N)N)C(=O)N[C@@H](CO)C(=O)N2 [GVIA, HCysLysSer4HypGlySerSerCysSer4HypThrSerTyrAsnCysCysArgSerCysAsn4HypTyrLysArgCysTyr-NH2]
block of voltage-gated calcium channels [3]: block voltage-gated calcium channels | Mean score (S.E.M), CA1 damage 0-4 [4]: 1.3 (.33) and 1.2 (.39) | Percent Damage [4]: 42% and 39% | reduction in damage [4]: > 50% | Ki ([1]; pKi): 0.0141 µM | IC50 [5]: 0.2 µM | IC50 [2]: 0.00048 µM

CC(C)[C@@H]1NC(=O)[C@H](CCCNC(=N)N)NC(=O)[C@@H]2CSSC[C@@H]3NC(=O)[C@H](CO)NC(=O)[C@H](CO)NC(=O)[C@H](CSSC[C@H](N)C(=O)N[C@@H](CCCCN)C(=O)N4CCC[C@H]4C(=O)N4C[C@H](O)C[C@H]4C(=O)NCC(=O)N[C@@H](CO)C(=O)N4C[C@H](O)C[C@H]4C(=O)N2)NC(=O)[C@H](CSSC[C@@H](C(=O)NCC(N)=O)NC(=O)[C@H](CCCCN)NC(=O)[C@H](CCCCN)NC(=O)[C@H](CC(N)=O)NC(=O)[C@H](Cc2ccc(O)cc2)NC(=O)[C@H](CO)NC(=O)[C@H](CCCCN)NC3=O)NC(=O)[C@H](CC(N)=O)NC(=O)[C@H](Cc2ccc(O)cc2)NC(=O)[C@H](CO)NC(=O)[C@H](CO)NC1=O [RVIA] (H-CKP[Hyp]GS[Hyp]CRVSSYNCCSSCKSYNKKCG-NH2; disulfide 1-16, 8-19, 15-26)
Ki ([1]; Ki): 0.324 µM | Ki ([1]; pKi): 0.355 µM | IC50 [2]: 0.229 µM

CC(C)C[C@@H]1NC(=O)[C@H](CCCCN)NC(=O)[C@@H](N)CSSC[C@@H]2NC(=O)[C@@H]3CSSC[C@@H](C(N)=O)NC(=O)[C@H](CCCCN)NC(=O)CNC(=O)[C@H](CO)NC(=O)[C@H](CCCNC(=N)N)NC(=O)CNC(=O)[C@H](CSSC[C@H](NC(=O)[C@H](CO)NC(=O)[C@H](CCC(N)=O)NC(=O)CNC(=O)[C@H](CCCCN)NC1=O)C(=O)N[C@@H](CCCNC(=N)N)C(=O)N[C@@H](CCCCN)C(=O)N[C@@H]([C@@H](C)O)C(=O)N[C@@H](CO)C(=O)N[C@@H](Cc1ccc(O)cc1)C(=O)N[C@@H](CC(=O)O)C(=O)N3)NC(=O)[C@H](CO)NC(=O)CNC(=O)[C@H](CO)NC2=O [SVIB] (H-CKLKGQSCRKTSYDCCSGSCGRSGKC-NH2; disulfide 1-16, 8-20, 15-26)
Ki ([1]; pKi): 0.00302 µM | IC50 [2]: 0.0057 µM

CC[C@H](C)[C@@H]1NC(=O)[C@H](CO)NC(=O)[C@H]([C@@H](C)O)NC(=O)[C@H](C(C)C)NC(=O)CNC(=O)[C@@H]2CSSC[C@@H]3NC(=O)[C@H](CCCNC(=N)N)NC(=O)CNC(=O)[C@H](CSSC[C@H](N)C(=O)N[C@@H](CCCNC(=N)N)C(=O)N[C@@H](CO)C(=O)N[C@@H](CO)C(=O)NCC(=O)N[C@@H](CO)C(=O)N4C[C@H](O)C[C@H]4C(=O)N[C@@H](Cc4c[nH]cn4)C(=O)N2)NC(=O)[C@H](CSSC[C@@H](C(=O)N[C@H](C(N)=O)[C@@H](C)O)NC(=O)[C@H](CCCCN)NC(=O)CNC(=O)[C@H](CCCNC(=N)N)NC(=O)[C@H](Cc2ccc(O)cc2)NC3=O)NC1=O [SVIA, H-CysArgSerSerGlySer4HypHisCysGlyValThrSerIleCysCysGly ArgCysTyrArgGlyLysCysThr-NH2] (H-CRSSGS[Hyp]HCGVTSICCGRCYRGKCT-NH2; disulfide 1-16, 9-19, 15-24)
binding affinity/activity (in words) [1]: relatively low affinity binding | Ki ([1]; pKi): > 1000 µM | IC50 [2]: > 1000 µM

CSCC[C@@H]1NC(=O)[C@H](CC(C)C)NC(=O)[C@H](CCCNC(=N)N)NC(=O)[C@H](CO)NC(=O)[C@@H]2CSSC[C@@H]3NC(=O)[C@H](CO)NC(=O)CNC(=O)[C@H]([C@@H](C)O)NC(=O)[C@H](CSSC[C@H](N)C(=O)N[C@@H](CCCCN)C(=O)NCC(=O)N[C@@H](CCCCN)C(=O)NCC(=O)N[C@@H](C)C(=O)N[C@@H](CCCCN)C(=O)N2)NC(=O)[C@H](CSSC[C@@H](C(N)=O)NC(=O)[C@H](CCCCN)NC(=O)CNC(=O)[C@H](CO)NC(=O)[C@H](CCCNC(=N)N)NC3=O)NC(=O)[C@H](CC(=O)O)NC(=O)[C@H](Cc2ccc(O)cc2)NC1=O [MVIIA]
Mean score (S.E.M), CA1 damage 0-4 [6]: 1.2 (0.36) | concentration of specific binding sites [7]: < 4.6 | concentration of specific binding sites [8]: 56.6 and 79.1 | effect of ICV administration in mice [9]: whole-body tremors | IC50 [5]: 0.03 µM
